Assay [1] deals with T1, Equilibrative nucleoside transporter 1 (Homo sapiens, UniProt Q99808).
T1 sequence (Q99808 whole entry): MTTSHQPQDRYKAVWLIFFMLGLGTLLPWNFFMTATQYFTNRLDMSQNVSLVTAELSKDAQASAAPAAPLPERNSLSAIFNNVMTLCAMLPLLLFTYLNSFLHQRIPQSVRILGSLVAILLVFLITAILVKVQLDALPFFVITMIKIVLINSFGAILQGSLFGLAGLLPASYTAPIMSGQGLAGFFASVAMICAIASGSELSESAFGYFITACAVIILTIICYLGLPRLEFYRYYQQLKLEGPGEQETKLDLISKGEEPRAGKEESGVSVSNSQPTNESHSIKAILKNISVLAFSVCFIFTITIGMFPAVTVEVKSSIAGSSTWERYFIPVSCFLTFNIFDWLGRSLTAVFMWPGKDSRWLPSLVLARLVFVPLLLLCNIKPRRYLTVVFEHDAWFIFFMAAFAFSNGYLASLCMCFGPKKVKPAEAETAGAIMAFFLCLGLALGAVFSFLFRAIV

A further assay concerns the target T2, B2 bradykinin receptor (Homo sapiens, UniProt P30411).
T2 sequence (P30411 whole entry): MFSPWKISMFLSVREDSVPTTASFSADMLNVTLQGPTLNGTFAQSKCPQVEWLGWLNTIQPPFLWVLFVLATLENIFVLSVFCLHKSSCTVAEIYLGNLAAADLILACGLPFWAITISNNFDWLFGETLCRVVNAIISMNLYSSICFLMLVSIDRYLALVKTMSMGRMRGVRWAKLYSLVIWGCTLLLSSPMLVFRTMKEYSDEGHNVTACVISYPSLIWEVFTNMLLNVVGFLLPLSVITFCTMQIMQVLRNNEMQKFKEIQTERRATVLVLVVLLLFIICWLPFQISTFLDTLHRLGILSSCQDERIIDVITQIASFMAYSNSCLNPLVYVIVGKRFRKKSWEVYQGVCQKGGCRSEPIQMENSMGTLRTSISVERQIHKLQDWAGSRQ

Another assay addresses T3, Estrogen receptor (Homo sapiens, UniProt P03372).
T3 sequence (P03372 whole entry): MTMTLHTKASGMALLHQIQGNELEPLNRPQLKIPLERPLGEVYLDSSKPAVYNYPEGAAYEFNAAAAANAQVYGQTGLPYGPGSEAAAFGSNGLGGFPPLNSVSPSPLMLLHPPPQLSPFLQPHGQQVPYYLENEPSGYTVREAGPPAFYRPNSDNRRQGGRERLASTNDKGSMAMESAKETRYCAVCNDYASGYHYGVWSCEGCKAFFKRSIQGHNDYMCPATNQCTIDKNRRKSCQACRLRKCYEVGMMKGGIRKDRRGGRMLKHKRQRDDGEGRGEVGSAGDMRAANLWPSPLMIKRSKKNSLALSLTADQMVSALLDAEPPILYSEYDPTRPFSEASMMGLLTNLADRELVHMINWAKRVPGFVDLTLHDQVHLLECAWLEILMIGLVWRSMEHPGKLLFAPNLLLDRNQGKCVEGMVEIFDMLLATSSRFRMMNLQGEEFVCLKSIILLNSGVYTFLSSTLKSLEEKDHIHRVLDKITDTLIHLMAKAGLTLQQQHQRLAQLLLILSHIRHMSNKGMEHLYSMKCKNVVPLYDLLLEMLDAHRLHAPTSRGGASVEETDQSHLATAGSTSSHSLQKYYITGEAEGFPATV

Assay [2] concerns the target 5-hydroxytryptamine receptor 2B (Homo sapiens, UniProt P41595). The assay is classed as functional, cell-based.
The target of a further assay is T4, Adenosine receptor A3 (Homo sapiens, UniProt P0DMS8).
T4 sequence (P0DMS8 whole entry): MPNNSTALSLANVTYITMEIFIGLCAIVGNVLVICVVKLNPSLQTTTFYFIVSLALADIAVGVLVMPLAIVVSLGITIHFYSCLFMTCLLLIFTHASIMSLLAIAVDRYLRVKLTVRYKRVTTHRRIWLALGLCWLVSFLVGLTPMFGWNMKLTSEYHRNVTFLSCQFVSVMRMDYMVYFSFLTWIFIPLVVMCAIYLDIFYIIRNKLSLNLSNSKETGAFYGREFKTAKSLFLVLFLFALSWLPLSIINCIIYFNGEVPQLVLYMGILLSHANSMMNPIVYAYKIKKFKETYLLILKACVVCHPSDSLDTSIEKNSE

For assay [3], the target named is T5, Alpha-1A adrenergic receptor (Homo sapiens, UniProt P35348).
T5 sequence (P35348 whole entry): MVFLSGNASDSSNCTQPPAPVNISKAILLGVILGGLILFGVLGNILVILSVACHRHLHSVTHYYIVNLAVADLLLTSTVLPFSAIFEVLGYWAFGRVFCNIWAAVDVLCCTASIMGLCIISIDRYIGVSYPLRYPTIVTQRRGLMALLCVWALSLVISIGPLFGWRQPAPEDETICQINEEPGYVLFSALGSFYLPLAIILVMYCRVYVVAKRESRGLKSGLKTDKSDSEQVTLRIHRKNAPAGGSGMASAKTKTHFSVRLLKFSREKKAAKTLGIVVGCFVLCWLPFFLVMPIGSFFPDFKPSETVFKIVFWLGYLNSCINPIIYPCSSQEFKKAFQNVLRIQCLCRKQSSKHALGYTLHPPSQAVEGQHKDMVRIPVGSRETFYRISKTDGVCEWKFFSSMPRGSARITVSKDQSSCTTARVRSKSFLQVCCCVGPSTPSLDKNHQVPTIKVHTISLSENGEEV
It counts as functional, cell-based.
Further: assay procedure not described here.

Chain of 5-hydroxytryptamine receptor 2B (P41595 whole entry): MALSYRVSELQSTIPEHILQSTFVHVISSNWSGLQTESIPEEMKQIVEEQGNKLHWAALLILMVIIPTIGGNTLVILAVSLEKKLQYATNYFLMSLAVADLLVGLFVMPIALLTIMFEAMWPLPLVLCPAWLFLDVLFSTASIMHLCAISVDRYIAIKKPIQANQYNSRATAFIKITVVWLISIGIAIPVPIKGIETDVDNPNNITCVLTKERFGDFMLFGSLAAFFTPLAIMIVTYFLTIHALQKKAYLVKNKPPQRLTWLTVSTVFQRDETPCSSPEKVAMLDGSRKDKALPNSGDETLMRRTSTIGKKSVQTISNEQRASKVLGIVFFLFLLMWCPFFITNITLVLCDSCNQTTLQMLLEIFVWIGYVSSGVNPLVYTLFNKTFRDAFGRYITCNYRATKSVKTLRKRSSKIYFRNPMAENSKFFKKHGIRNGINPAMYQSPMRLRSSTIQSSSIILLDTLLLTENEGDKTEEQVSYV

Take `C[C@@H](NCCCc1cccc(C(F)(F)F)c1)c1cccc2ccccc12`: the AC50 in assay [1] was above 30 µM; on B2 bradykinin receptor, above 3 µM.

`O=C(O)CO` [GLYCOLIC ACID]: the AC50 at Estrogen receptor is above 30 µM.

As to `C[C@]12C=CC(=O)N[C@@H]1CC[C@@H]1[C@@H]2CC[C@]2(C)[C@@H](C(=O)Nc3cc(C(F)(F)F)ccc3C(F)(F)F)CC[C@@H]12` [DUTASTERIDE], the AC50 (in assay [2]; in assay [1]; on B2 bradykinin receptor) was above 10 µM each time.

As for `OC[C@H]1O[C@@](CO)(O[C@H]2O[C@H](CO)[C@@H](O)[C@H](O)[C@H]2O)[C@@H](O)[C@@H]1O` [SUCROSE], the AC50 (on Estrogen receptor; in assay [2]; in assay [1]; on B2 bradykinin receptor) was above 30 µM in each case.

Consider `CC1=C(/C=C/C(C)=C/C=C/C(C)=C/C(=O)O)C(C)(C)CCC1` [TRETINOIN], for which the AC50 on Adenosine receptor A3 amounted to 8.21 µM; in assay [3], 20.3 µM.

Take `CCOC(=O)c1c(C)cc2c(CO)n[nH]c(=O)c2c1C` [OXAGRELATE]: at Estrogen receptor, the AC50 was above 30 µM.

On to `CC(S)C(=O)NCC(=O)O` (stereo not given) [TIOPRONIN], for which the AC50 in assay [2] and in assay [1] was above 30 µM each time.

For `CCn1cc(C(=O)O)c(=O)c2cc3c(cc21)OCO3` [OXOLINIC ACID], the AC50 (at Adenosine receptor A3; in assay [3]) was above 30 µM throughout.

Turning to `COc1ccc(CC2c3cc(OC)c(OC)cc3CC[N+]2(C)CCC(=O)OCCCCCOC(=O)CC[N+]2(C)CCc3cc(OC)c(OC)cc3C2Cc2ccc(OC)c(OC)c2)cc1OC` (stereo not given), the AC50 (in assay [2]; in assay [1]; on B2 bradykinin receptor) was above 30 µM throughout.

`CC(C)(C)NCC(O)c1cc(O)cc(O)c1` (stereo not given) [TERBUTALINE]: the AC50 (in assay [1]; at B2 bradykinin receptor) was above 30 µM in each case.

On to `C[C@H]1O[C@@H](n2cc(F)c(=O)[nH]c2=O)[C@H](O)[C@@H]1O` [DOXIFLURIDINE], for which the AC50 (on Adenosine receptor A3; in assay [3]) was above 30 µM each time.

In the case of `CC(N)C12CC3CC(CC(C3)C1)C2` (stereo not given) [RIMANTADINE], the AC50 (in assay [2]; in assay [1]; on B2 bradykinin receptor) was above 10 µM each time.

In the case of `O=C1/C(=C2\Nc3ccc(S(=O)(=O)O)cc3C2=O)Nc2ccc(S(=O)(=O)O)cc21` [INDIGOTINDISULFONATE], the AC50 on Adenosine receptor A3 was 0.995 µM; in assay [3] it was above 30 µM.

With `C[N+](C)(C)C[C@H](O)CC(=O)[O-]` [LEVOCARNITINE], the AC50 (at Adenosine receptor A3; in assay [3]) was above 30 µM in each case.

`O=C1CCc2cc(OCCCCc3nnnn3C3CCCCC3)ccc2N1` [CILOSTAZOL]: the results for the AC50 (in assay [2]; in assay [1]; at B2 bradykinin receptor) were above 30 µM, 30 µM and above 30 µM, respectively.

On Estrogen receptor, `CC[C@@]1(O)C(=O)OCc2c1cc1n(c2=O)Cc2cc3c([N+](=O)[O-])cccc3nc2-1` [RUBITECAN] came in with an AC50 above 30 µM.

Turning to `CCOC(=O)C1=C[C@@H](OC(CC)CC)[C@H](NC(C)=O)[C@@H](N)C1` [OSELTAMIVIR], the concentration at half-maximal activity (AC50) (at Adenosine receptor A3; in assay [3]) was above 30 µM throughout.

As to `O=C1CN(/N=C/c2ccc(-c3ccc([N+](=O)[O-])cc3)o2)C(O)=N1` [DANTROLENE], the AC50 (in assay [2]; in assay [1]; on B2 bradykinin receptor) was above 10 µM each time.

As to `CC(C(=O)O)c1ccc2c(c1)[nH]c1ccc(Cl)cc12` (stereo not given) [CARPROFEN], the AC50 in assay [2] was above 10 µM; in assay [1], above 30 µM; at B2 bradykinin receptor, above 30 µM.

`C=CCN1CC[C@]23CCCC[C@H]2[C@H]1Cc1ccc(O)cc13` [LEVALLORPHAN]: the AC50 (on Adenosine receptor A3; in assay [3]) was above 30 µM each time.

`CCN1CCN(Cc2ccc(Nc3ncc(F)c(-c4cc(F)c5nc(C)n(C(C)C)c5c4)n3)nc2)CC1` [ABEMACICLIB]: the AC50 in assay [2] is 19 µM; in assay [1], above 30 µM.

For the molecule `N[C@@H](CO)C(=O)O` [SERINE], the half-maximal activity concentration (AC50) (on Adenosine receptor A3; in assay [3]) was above 30 µM throughout.

`CN(CC1(C)CCCO1)S(=O)(=O)c1ccc(Cl)c(S(N)(=O)=O)c1` (stereo not given) [MEFRUSIDE] yielded a half-maximal activity concentration (AC50) in assay [2] above 30 µM.

With `CN(C)CC[C@@H](c1ccc(Cl)cc1)c1ccccn1` [DEXCHLORPHENIRAMINE], the half-maximal activity concentration (AC50) (in assay [2]; in assay [1]; at B2 bradykinin receptor) was above 30 µM each time.

In the case of `C#C[C@]1(O)CC[C@H]2[C@@H]3CCC4=CC(=O)CC[C@@H]4[C@H]3C(=C)C[C@@]21CC` [ETONOGESTREL], the results for the AC50 (at Estrogen receptor; in assay [2]) were 5.62 µM and above 30 µM, respectively.

For the molecule `O=C1C(CC[S+]([O-])c2ccccc2)C(=O)N(c2ccccc2)N1c1ccccc1` (stereo not given) [SULFINPYRAZONE], the results for the concentration at half-maximal activity (AC50) (in assay [2]; in assay [1]; on B2 bradykinin receptor) were above 30 µM, above 10 µM and above 10 µM, respectively.

For the molecule `C[C@H](CCC(=O)O)[C@H]1CC[C@H]2[C@@H]3[C@@H](O)C[C@@H]4C[C@H](O)CC[C@]4(C)[C@H]3CC[C@]12C` [URSODIOL], the AC50 in assay [2] and in assay [1] was above 30 µM each time.

With `C[C@@H]1C[C@H]2[C@@H]3CCC4=CC(=O)C=C[C@]4(C)[C@@]3(Cl)[C@@H](O)C[C@]2(C)[C@@]1(OC(=O)c1ccco1)C(=O)CCl` [MOMETASONE FUROATE], the results for the AC50 (on Adenosine receptor A3; in assay [3]) were 1.64 µM and above 10 µM, respectively.

Turning to `CC(C)c1nc(N(C)S(C)(=O)=O)nc(-c2ccc(F)cc2)c1/C=C/[C@@H](O)C[C@@H](O)CC(=O)O` [ROSUVASTATIN], the AC50 (in assay [2]; in assay [1]; at B2 bradykinin receptor) was above 30 µM in each case.

As for `CN(C)[C@@H]1C(O)=C(C(N)=O)C(=O)[C@@]2(O)C(O)=C3C(=O)c4c(O)ccc(Cl)c4[C@@](C)(O)[C@H]3C[C@@H]12` [CHLORTETRACYCLINE], the AC50 (at Adenosine receptor A3; in assay [3]) was above 30 µM in each case.

On to `CC(=O)Oc1cc(C(F)(F)F)ccc1C(=O)O` [TRIFLUSAL], for which the AC50 (at Adenosine receptor A3; in assay [3]) was above 30 µM throughout.

At Estrogen receptor, `OC[C@@H](O)[C@@H](O)[C@H](O)[C@@H](O)CO` [SORBITOL] had an AC50 above 30 µM.

As for `CN1C(C(=O)Nc2ccccn2)=C(O)c2ccccc2S1(=O)=O` [PIROXICAM], the AC50 at Estrogen receptor was above 30 µM; in assay [2], above 10 µM; in assay [1], above 10 µM; at B2 bradykinin receptor, above 10 µM.

In the case of `CN(C)CCC[C@@]1(c2ccc(F)cc2)OCc2cc(C#N)ccc21` [ESCITALOPRAM], the concentration at half-maximal activity (AC50) was 22 µM in assay [2], above 30 µM in assay [1] and above 30 µM at B2 bradykinin receptor.

In turn, `CN1C[C@H](C(=O)N[C@]2(C)O[C@@]3(O)[C@@H]4CCCN4C(=O)[C@H](Cc4ccccc4)N3C2=O)C=C2c3cccc4[nH]cc(c34)C[C@H]21` [ERGOTAMINE] gave an AC50 in assay [1] above 30 µM.

Consider `N[C@@H](CS)C(=O)O` [CYSTEINE], for which the concentration at half-maximal activity (AC50) (on Adenosine receptor A3; in assay [3]) was above 30 µM throughout.

The record behind these values is ChEMBL document CHEMBL5291721, “A preclinical secondary pharmacology resource illuminates target-adverse drug reaction associations of marketed drugs” (Nat Commun, 2023).
